Measurements published in PubChem BioAssay (NCI).
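All cell lines were grown in 96-well plates and treated with compound for 48 hours. Definition used: TGI = concentration required for complete inhibition of growth.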

Key:
Assay in all cases: NCI tumour cell line growth inhibition, 48 h
SF-539 CNS = test system: SF-539 CNS
MOLT-4 leukemia = test system: MOLT-4 leukemia
HOP-62 NSCLC = test system: HOP-62 NSCLC
UACC-62 melanoma = test system: UACC-62 melanoma
DU-145 prostate = test system: DU-145 prostate
NCI-H522 lung = test system: NCI-H522 lung
HT29 colon = test system: HT29 colon
A498 renal = test system: A498 renal
NCI/ADR-RES ovarian = test system: NCI/ADR-RES ovarian
HOP-92 NSCLC = test system: HOP-92 NSCLC
TK-10 renal = test system: TK-10 renal
COLO 205 colon = test system: COLO 205 colon
SF-268 CNS = test system: SF-268 CNS
OVCAR-3 ovarian = test system: OVCAR-3 ovarian
786-0 renal = test system: 786-0 renal
SK-MEL-2 melanoma = test system: SK-MEL-2 melanoma
SW-620 colon = test system: SW-620 colon
T-47D breast = test system: T-47D breast
BT-549 breast = test system: BT-549 breast
EKVX NSCLC = test system: EKVX NSCLC
IGROV1 ovarian = test system: IGROV1 ovarian
RPMI-8226 leukemia = test system: RPMI-8226 leukemia
RXF 393 renal = test system: RXF 393 renal
MDA-MB-435 = test system: MDA-MB-435
HCC-2998 colon = test system: HCC-2998 colon
SK-OV-3 ovarian = test system: SK-OV-3 ovarian
HL-60(TB) leukemia = test system: HL-60(TB) leukemia
PC-3 prostate = test system: PC-3 prostate
MALME-3M melanoma = test system: MALME-3M melanoma
OVCAR-4 ovarian = test system: OVCAR-4 ovarian
K-562 leukemia = test system: K-562 leukemia
MDA-MB-231 breast = test system: MDA-MB-231 breast
MDA-N = test system: MDA-N
SF-295 CNS = test system: SF-295 CNS
HCT-15 colon = test system: HCT-15 colon
SNB-75 CNS = test system: SNB-75 CNS
U251 CNS = test system: U251 CNS
SNB-19 CNS = test system: SNB-19 CNS
SN12C renal = test system: SN12C renal
A549 NSCLC = test system: A549 NSCLC
CAKI-1 renal = test system: CAKI-1 renal
MCF7 breast = test system: MCF7 breast
UO-31 renal = test system: UO-31 renal
HS 578T breast = test system: HS 578T breast
NCI-H460 lung = test system: NCI-H460 lung
HCT-116 colon = test system: HCT-116 colon
KM12 colon = test system: KM12 colon
ACHN renal = test system: ACHN renal
NCI-H23 lung = test system: NCI-H23 lung
UACC-257 melanoma = test system: UACC-257 melanoma
SK-MEL-28 melanoma = test system: SK-MEL-28 melanoma
LOX IMVI melanoma = test system: LOX IMVI melanoma
M14 melanoma = test system: M14 melanoma
OVCAR-8 ovarian = test system: OVCAR-8 ovarian
CCRF-CEM leukemia = test system: CCRF-CEM leukemia
OVCAR-5 ovarian = test system: OVCAR-5 ovarian
NCI-H226 lung = test system: NCI-H226 lung
SK-MEL-5 melanoma = test system: SK-MEL-5 melanoma
SR leukemia = test system: SR leukemia

SMILES: Cc1cn(C2CC(N=[N+]=[N-])C(CO)O2)c(=O)n(CCCCO)c1=O (centres undefined)
- TGI (SF-539 CNS): > 100 µM
- TGI (MOLT-4 leukemia): > 100 µM
- TGI (HOP-62 NSCLC): > 100 µM
- TGI (UACC-62 melanoma): > 100 µM
- TGI (DU-145 prostate): > 100 µM
- TGI (NCI-H522 lung): > 100 µM
- TGI (HT29 colon): > 100 µM
- TGI (A498 renal): > 100 µM
- TGI (NCI/ADR-RES ovarian): > 100 µM
- TGI (HOP-92 NSCLC): > 100 µM
- TGI (TK-10 renal): > 100 µM
- TGI (COLO 205 colon): > 100 µM
- TGI (SF-268 CNS): > 100 µM
- TGI (OVCAR-3 ovarian): > 100 µM
- TGI (786-0 renal): > 100 µM
- TGI (SK-MEL-2 melanoma): > 100 µM
- TGI (SW-620 colon): > 100 µM
- TGI (T-47D breast): > 100 µM
- TGI (BT-549 breast): > 100 µM
- TGI (EKVX NSCLC): > 100 µM
- TGI (IGROV1 ovarian): > 100 µM
- TGI (RPMI-8226 leukemia): > 100 µM
- TGI (RXF 393 renal): > 100 µM
- TGI (MDA-MB-435): > 100 µM
- TGI (HCC-2998 colon): > 100 µM
- TGI (SK-OV-3 ovarian): > 100 µM
- TGI (HL-60(TB) leukemia): > 100 µM
- TGI (PC-3 prostate): > 100 µM
- TGI (MALME-3M melanoma): > 100 µM
- TGI (OVCAR-4 ovarian): > 100 µM
- TGI (K-562 leukemia): > 100 µM
- TGI (MDA-MB-231 breast): > 100 µM
- TGI (MDA-N): > 100 µM
- TGI (SF-295 CNS): > 100 µM
- TGI (HCT-15 colon): > 100 µM
- TGI (SNB-75 CNS): > 100 µM
- TGI (U251 CNS): > 100 µM
- TGI (SNB-19 CNS): > 100 µM
- TGI (SN12C renal): > 100 µM
- TGI (A549 NSCLC): > 100 µM
- TGI (CAKI-1 renal): > 100 µM
- TGI (MCF7 breast): > 100 µM
- TGI (UO-31 renal): > 100 µM
- TGI (HS 578T breast): > 100 µM
- TGI (NCI-H460 lung): > 100 µM
- TGI (HCT-116 colon): > 100 µM
- TGI (KM12 colon): > 100 µM
- TGI (ACHN renal): > 100 µM
- TGI (NCI-H23 lung): > 100 µM
- TGI (UACC-257 melanoma): > 100 µM
- TGI (SK-MEL-28 melanoma): > 100 µM
- TGI (LOX IMVI melanoma): > 100 µM
- TGI (M14 melanoma): > 100 µM
- TGI (OVCAR-8 ovarian): > 100 µM
- TGI (CCRF-CEM leukemia): > 100 µM
- TGI (OVCAR-5 ovarian): > 100 µM
- TGI (NCI-H226 lung): > 100 µM

SMILES: COc1cc(S(=O)(=O)Nc2ccc(-c3csc(/N=C\C=C\c4ccccc4)n3)cc2)ccc1Cl
- TGI (SF-539 CNS): 59.8 µM
- TGI (MOLT-4 leukemia): > 100 µM
- TGI (HOP-62 NSCLC): > 100 µM
- TGI (SK-MEL-5 melanoma): > 100 µM
- TGI (UACC-62 melanoma): > 100 µM
- TGI (DU-145 prostate): > 100 µM
- TGI (NCI-H522 lung): > 100 µM
- TGI (HT29 colon): > 100 µM
- TGI (A498 renal): 50.5 µM
- TGI (NCI/ADR-RES ovarian): > 100 µM
- TGI (HOP-92 NSCLC): 75.9 µM
- TGI (TK-10 renal): > 100 µM
- TGI (COLO 205 colon): > 100 µM
- TGI (SF-268 CNS): > 100 µM
- TGI (OVCAR-3 ovarian): > 100 µM
- TGI (786-0 renal): > 100 µM
- TGI (SK-MEL-2 melanoma): 72.3 µM
- TGI (SW-620 colon): > 100 µM
- TGI (T-47D breast): 80.7 µM
- TGI (BT-549 breast): > 100 µM
- TGI (EKVX NSCLC): > 100 µM
- TGI (IGROV1 ovarian): > 100 µM
- TGI (RPMI-8226 leukemia): > 100 µM
- TGI (RXF 393 renal): 80.2 µM
- TGI (MDA-MB-435): > 100 µM
- TGI (HCC-2998 colon): > 100 µM
- TGI (SK-OV-3 ovarian): > 100 µM
- TGI (HL-60(TB) leukemia): > 100 µM
- TGI (PC-3 prostate): 56.7 µM
- TGI (MALME-3M melanoma): > 100 µM
- TGI (OVCAR-4 ovarian): > 100 µM
- TGI (K-562 leukemia): > 100 µM
- TGI (SR leukemia): > 100 µM
- TGI (MDA-N): > 100 µM
- TGI (SF-295 CNS): > 100 µM
- TGI (HCT-15 colon): > 100 µM
- TGI (SNB-75 CNS): > 100 µM
- TGI (SNB-19 CNS): > 100 µM
- TGI (SN12C renal): > 100 µM
- TGI (A549 NSCLC): > 100 µM
- TGI (CAKI-1 renal): > 100 µM
- TGI (MCF7 breast): > 100 µM
- TGI (UO-31 renal): > 100 µM
- TGI (HS 578T breast): > 100 µM
- TGI (NCI-H460 lung): > 100 µM
- TGI (HCT-116 colon): > 100 µM
- TGI (KM12 colon): > 100 µM
- TGI (ACHN renal): > 100 µM
- TGI (NCI-H23 lung): > 100 µM
- TGI (UACC-257 melanoma): > 100 µM
- TGI (SK-MEL-28 melanoma): > 100 µM
- TGI (LOX IMVI melanoma): > 100 µM
- TGI (M14 melanoma): > 100 µM
- TGI (OVCAR-8 ovarian): > 100 µM
- TGI (CCRF-CEM leukemia): 50.4 µM
- TGI (OVCAR-5 ovarian): > 100 µM
- TGI (NCI-H226 lung): 57.7 µM
